11 molecules from patent publication US20170198006A1, “PRMT5 INHIBITORS AND USES THEREOF” (Epizyme, Inc., priority 2014, published 2017) can be followed below.

Molecules are shown by their SMILES. pEC50, pIC50: −log10 of the molar value.

In one assay the test system is Z-138 cells. The assay can be described thus: Z-138 Proliferation Assay (Cell Titer Glo, 5 days). Particulars: Homo sapiens, 120 h. The assay is classed as cell-based. The text has this:
Z-138 Proliferation Assay
Z-138 suspension cells were purchased from ATCC (American Type Culture Collection, Manassas, Va.). RPMI/Glutamax medium, penicillin-streptomycin, heat inactivated fetal bovine serum were purchased from Life Technologies, Grand Island, N.Y., USA. V-bottom polypropylene 384-well plates were purchased from Greiner Bio-One, Monroe, N.C., USA. Cell culture 384-well white opaque plates were purchased from Perkin Elmer, Waltham, Mass., USA. Cell-Titer Glo® was purchased from Promega Corporation, Madison, Wis., USA. SpectraMax M5 plate reader was purchased from Molecular Devices LLC, Sunnyvale, Calif., USA.
Z-138 suspension cells were maintained in growth medium (RPMI 1640 supplemented with 10% v/v heat inactivated fetal bovine serum and cultured at 37° C. under 5% CO2. Under assay conditions, cells were incubated in assay medium (RPMI 1640 supplemented with 10% v/v heat inactivated fetal bovine serum and 100 units/mL penicillin-streptomycin) at 37° C. under 5% CO2.
For the assessment of the effect of compounds on the proliferation of the Z-138 cell line, exponentially growing cells were plated in 384-well white opaque plates at a density of 10,000 cells/ml in a final volume of 50 μl of assay medium. A compound source plate was prepared by performing triplicate nine-point 3-fold serial dilutions in DMSO, beginning at 10 mM (final top concentration of compound in the assay was 20 μM and the DMSO was 0.2%). A 100 nL aliquot from the compound stock plate was added to its respective well in the cell plate. […] After addition of compounds, assay plates were incubated for 5 days at 37° C., 5% CO2, relative humidity >90%.
Cell viability was measured by quantitation of ATP present in the cell cultures, adding 35 μl of Cell Titer Glo® reagent to the cell plates. Luminescence was read in the SpectraMax M5 microplate reader. The concentration of compound inhibiting cell viability by 50% was determined using a 4-parametric fit of the normalized dose response curves.

Assay [1] relates to symmetric di-methyl arginine in Z-138 cells. The assay is described as follows: Z-138 Methylation Assay (In Cell Western for symmetric di-methyl arginine and DNA content). The assay is classed as cell-based. Particulars: Homo sapiens, read-out: ICW EC50. The text has this: Z-138 suspension cells were purchased from ATCC (American Type Culture Collection, Manassas, Va.). RPMI/Glutamax medium, penicillin-streptomycin, heat inactivated fetal bovine serum, and D-PBS were purchased from Life Technologies, Grand Island, N.Y., USA. Odyssey blocking buffer, 800CW goat anti-rabbit IgG (H+L) antibody, and Licor Odyssey infrared scanner were purchased from Licor Biosciences, Lincoln, Nebr., USA. Symmetric di-methyl arginine antibody was purchased from EMD Millipore, Billerica, Mass., USA. 16% Paraformaldehyde was purchased from Electron Microscopy Sciences, Hatfield, Pa., USA.
Z-138 suspension cells were maintained in growth medium (RPMI 1640 supplemented with 10% v/v heat inactivated fetal bovine serum and 100 units/mL penicillin-streptomycin) and cultured at 37° C. under 5% CO2.
Cell Treatment, in Cell Western (ICW) for Detection of Symmetric Di-Methyl Arginine and DNA Content.
Z-138 cells were seeded in assay medium at a concentration of 50,000 cells per mL to a 384-well cell culture plate with 50 μL per well. Compound (100 nL) from 384 well source plates was added directly to 384 well cell plate. Plates were incubated at 37° C., 5% CO2 for 96 hours. After four days of incubation, 40 μL of cells from incubated plates were added to poly-D-lysine coated 384 well culture plates (BD Biosciences 356697). Plates were incubated at room temperature for 30 minutes then incubated at 37° C., 5% CO2 for 5 hours. After the incubation, 40 μL per well of 8% paraformaldehyde in PBS (16% paraformaldahyde was diluted to 8% in PBS) was added to each plate and incubated for 30 minutes. Plates were transferred to a Biotek 405 plate washer and washed 5 times with 100 μL per well of wash buffer (1×PBS with 0.1% Triton X-100 (v/v)). Next 30 μL per well of Odyssey blocking buffer were added to each plate and incubated 1 hour at room temperature. Blocking buffer was removed and 20 μL per well of primary antibody was added (symmetric di-methyl arginine diluted 1:100 in Odyssey buffer with 0.1% Tween 20 (v/v)) and plates were incubated overnight (16 hours) at 4° C. Plates were washed 5 times with 100 μL per well of wash buffer. Next 20 μL per well of secondary antibody was added (1:200 800CW goat anti-rabbit IgG (H+L) antibody, 1:1000 DRAQ5 (Biostatus limited) in Odyssey buffer with 0.1% Tween 20 (v/v)) and incubated for 1 hour at room temperature. The plates were washed 5 times with 100 μL per well wash buffer then 1 time with 100 μL per well of water. Plates were allowed to dry at room temperature then imaged on the Licor Odyssey machine which measures integrated intensity at 700 nm and 800 nm wavelengths. Both 700 and 800 channels were scanned.
First, the ratio for each well was determined by:
Each plate included fourteen control wells of DMSO only treatment (minimum inhibition) as well as fourteen control wells for maximum inhibition treated with 3 μM of a reference compound (Background wells). The average of the ratio values for each control type was calculated and used to determine the percent inhibition for each test well in the plate. Reference compound was serially diluted three-fold in DMSO for a total of nine test concentrations, beginning at 3 μM. Percent inhibition was determined and IC50 curves were generated using triplicate wells per concentration of compound.

In another assay the target is T1, PRMT5/MEP50 (Homo sapiens, UniProt O14744).
T1 construct: Flag-PRMT5; made in house; host or cells: Spodoptera frugiperda (SF9), baculovirus
T1 sequence (O14744 with tags, fused parts or gaps): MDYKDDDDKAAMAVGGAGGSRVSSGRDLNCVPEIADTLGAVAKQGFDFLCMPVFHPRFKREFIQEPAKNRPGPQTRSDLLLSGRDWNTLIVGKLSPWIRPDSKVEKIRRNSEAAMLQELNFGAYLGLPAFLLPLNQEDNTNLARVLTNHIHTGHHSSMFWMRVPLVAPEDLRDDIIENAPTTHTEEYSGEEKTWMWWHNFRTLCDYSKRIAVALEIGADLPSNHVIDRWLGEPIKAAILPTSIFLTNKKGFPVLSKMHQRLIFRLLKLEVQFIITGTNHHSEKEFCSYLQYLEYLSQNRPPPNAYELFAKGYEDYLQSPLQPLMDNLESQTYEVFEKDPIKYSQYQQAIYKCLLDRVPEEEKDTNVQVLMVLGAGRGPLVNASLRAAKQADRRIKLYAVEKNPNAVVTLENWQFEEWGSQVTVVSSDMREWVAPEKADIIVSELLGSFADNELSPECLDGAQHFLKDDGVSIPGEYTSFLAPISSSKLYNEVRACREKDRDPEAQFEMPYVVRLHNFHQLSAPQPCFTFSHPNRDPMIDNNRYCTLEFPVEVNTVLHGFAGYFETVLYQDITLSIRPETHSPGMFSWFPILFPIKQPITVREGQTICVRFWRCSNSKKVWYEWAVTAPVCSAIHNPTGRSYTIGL
T1 sequence (Q9BQA1 with tags, fused parts or gaps partner limits assumed): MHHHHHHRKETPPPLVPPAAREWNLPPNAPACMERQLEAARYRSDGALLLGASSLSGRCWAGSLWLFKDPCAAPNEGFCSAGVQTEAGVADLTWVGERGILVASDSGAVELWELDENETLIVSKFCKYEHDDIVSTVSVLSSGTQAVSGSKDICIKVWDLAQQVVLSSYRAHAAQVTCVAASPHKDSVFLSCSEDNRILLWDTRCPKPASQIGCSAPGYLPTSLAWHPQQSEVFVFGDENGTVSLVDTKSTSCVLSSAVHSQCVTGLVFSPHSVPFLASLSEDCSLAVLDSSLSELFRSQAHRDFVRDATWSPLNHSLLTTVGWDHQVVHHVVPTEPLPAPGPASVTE
The assay can be described thus: PRMT5 Biochemical Assay (PRMT5/MEP50 enzyme assay on histone H4 peptide substrate, 3H-SAM Flashplate). Particulars: PRMT5 biochemical assay; read-out: Biochemical IC50. The method in brief: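 Sf9-expressed Flag-PRMT5/6His-MEP50 preincubated with compound 30 min at 25 °C, then methylation of biotinylated H4 1-15 peptide started with ³H-SAM in 20 mM Bicine pH 7.6, 1 mM TCEP, 0.005% BSG, 0.002% Tween20.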

Regarding `CC(=O)N1CCC(Nc2cc(C(=O)NCC(C)(O)CN3CCc4ccccc4C3)ccn2)CC1` (stereo not drawn) [Compound 12-9], the pEC50 (commonly −log10 of the EC50, conventionally taken in molar units) is 5.00 to 6.00 in the assay with Z-138 cells and more than 7.00 in assay [1]. Further, the pIC50 (in general, the IC50 on a negative log10 scale, so that one unit is a factor of ten) on PRMT5/MEP50 is more than 7.00.
Consider `O=C(CC1NC(N2CCc3ccccc3C2)=NC1=O)Nc1ccc(Oc2ccccc2)cc1` (stereo not drawn) [Compound 12-14], for which the pEC50 (in the assay on Z-138 cells; in assay [1]) was less than 4.70 throughout. Besides, the pIC50 on PRMT5/MEP50 is 6.00 to 7.00.
Turning to `CC(=O)N1CCC(Nc2cc(C(=O)NC[C@@H](O)CN3CCc4ccccc4C3(C)C)ccn2)CC1` [Compound 13-9], the results for the pEC50 (in the assay with Z-138 cells; in assay [1]) were 5.00 to 6.00 and 6.00 to 7.00, respectively. The pIC50 at PRMT5/MEP50 was 6.00 to 7.00.
Regarding `CN(C)c1cccc2c(S(=O)(=O)NC3CCN(Cc4ccccc4)CC3)cccc12` [Compound 14-3], the results for the pEC50 (in the assay on Z-138 cells; in assay [1]) were less than 4.70 and 5.00 to 6.00, respectively. Moreover, the negative logarithm of the IC50 (pIC50) on PRMT5/MEP50 was more than 7.00.
With `O=C(NC[C@H](O)CN1CCc2ccccc2C1)c1cc(NC2CN(C(=O)C3CCC3)C2)ncn1` [Compound 14-9], the pEC50 (in the assay on Z-138 cells; in assay [1]) was more than 7.00 each time. The pIC50 on PRMT5/MEP50 was more than 7.00.
Regarding `CCOc1c(C)cc(S(=O)(=O)NCC2CCN(Cc3cc4cc(OC)ccc4nc3Cl)CC2)cc1C` [Compound 15-3], the negative logarithm of the EC50 (pEC50) (in the assay on Z-138 cells; in assay [1]) was less than 4.70 throughout. The negative logarithm of the IC50 (pIC50) on PRMT5/MEP50 was 6.00 to 7.00.
For the molecule `CCOC(=O)c1ccc(NC(=O)CC2NC(N3CCN(c4ccccc4)CC3)=NC2=O)cc1` (stereo not drawn) [Compound 20-14], the values for the pEC50 (with Z-138 cells; in assay [1]) were less than 4.70 and 5.00 to 6.00, respectively. On PRMT5/MEP50, the pIC50 is 6.00 to 7.00.
Consider `O=C(CC1NC(N2CCN(Cc3ccccc3)CC2)=NC1=O)Nc1ccc(Cl)cc1` (stereo not drawn) [Compound 22-14], for which the pEC50 (with Z-138 cells; in assay [1]) was less than 4.70 in each case. For the same molecule, the pIC50 on PRMT5/MEP50 is 6.00 to 7.00.
Take `Cn1cnc2ccc(-c3cccc(OCC(O)CN4CCc5ccccc5C4)c3)cc21` (stereo not drawn) [Compound 23-9]: the figures for the negative-log EC50 (pEC50) (in the assay on Z-138 cells; in assay [1]) were less than 6.00 and 6.00 to 7.00, respectively. Besides, the pIC50 on PRMT5/MEP50 is more than 7.00.
Taken in the same sequence, the figures for `O=C(NC[C@@H](O)CN1CCc2ccccc2C1)c1cccc(NC2CCOCC2)c1` [Compound 24-9] were less than 5.30, 6.00 to 7.00 and 6.00 to 7.00.
As to `Nc1ncnc2c1ncn2[C@@H]1O[C@H](CSCC[C@@H](N)CO)[C@@H](O)[C@H]1O` [Compound 92-1, (2S, 3S, 4R, 5R)-2-((((R)-3-amino-4-hydroxybutyl)thio)methyl)-5-(6-amino-9H-purin-9-yl)tetrahydrofuran-3,4-diol], the pEC50 is 4.30 to 5.00 with Z-138 cells and 5.00 to 6.00 in assay [1]. Also, at PRMT5/MEP50, the pIC50 is more than 7.00.
